Measurements: patent US12391712B2, “Phosphate derivatives of RORgamma modulators and uses thereof” (GENFIT, priority 2019, dated 2025)
Values after ≈ are worked out from the molar mass of the structure shown.

Key:
[1] = Stability in water at room temperature; assay type: physicochemical; settings: 5 mg/mL in water
Description: General procedure: compound 2 (Cpd. 2) according to the invention was dissolved in water in order to obtain a 5 mg/mL concentration. The solution was stirred for 7 days at room temperature. Compound 2 was quantified at different time points (0, 5 days and 7 days) by UPLC/MS using appropriate method.
Results are expressed as percentage of initial signal area for Cpd.2 (time point (1-day).

[2] = Metabolic stability (hydrolysis) in bronchoalveolar lavage fluid; assay type: in vitro ADME, human
Description: General procedure: human bronchoalveolar lavage fluid (hBALf) was purchased from BiolVT. Sample was collected from an individual donor. The only known information provided for the donor were age and gender. Information regarding the health status of the donor was not known.
The hydrolysis of compound 2 was tested at the concentration of 1 μM and 10 μM for 120 minutes (time points 5, 15, 30, 60 and 120 minutes). Quantification of the compound was then carried out by LC-MS/MS using appropriate methods.

[3] = Solubility in phosphate buffer pH=7.4; assay type: physicochemical; settings: for solubility at 24 h: aqueous buffer, thermodynamic from solid; for fold more soluble compared to unphosphated analogue / Solubility ratio: phosphate buffer pH=7.4; for Solubility ratio: phosphate derivative / unphosphated counterpart
Description: General procedure: The test compound was solubilized in phosphate buffer pH=7.4 at a given concentration (test concentration). The mixture was maintained under vigorous stirring for 24 hours at room temperature. In case a insoluble solid appeared, it was removed by centrifugation and the concentration of the test compound in the solution was determined by LC-MS/MS using appropriate methods.

[4] = phosphate buffer pH=7.4, stirring 24 hours at room temperature, LC-MS/MS

Structure (SMILES): Cc1ccc(C(NC(=O)C2(c3ccc4[nH]cc(CCOP(=O)([O-])[O-])c4c3)CC2)c2ccc(C)o2)c(C)c1.[Na+].[Na+] (centres unmarked) [Cpd.2, disodium 2-[5-(1-{[(2,4-dimethylphenyl)(5-methylfuran-2-yl)methyl]carbamoyl}cyclopropyl)-1H-indol-3-yl]ethyl phosphate]
- percentage of initial signal area for Cpd.2 (stability in water) ([1]; time point 0 days): 100%
- percentage of initial signal area for Cpd.2 (stability in water) ([1]; time point 5 days): 98%
- percentage of initial signal area for Cpd.2 (stability in water) ([1]; time point 7 days): 98%
- Cpd.2 quantification in hBALf, percentage of initial signal area ([2]; 1 μM, time point 0 min): 100%
- Cpd.2 quantification in hBALf, percentage of initial signal area ([2]; 1 μM, time point 5 min): 16.46%
- Cpd.2 quantification in hBALf, percentage of initial signal area ([2]; 1 μM, time point 15 min): 1.84%
- Cpd.2 quantification in hBALf, percentage of initial signal area ([2]; 1 μM, time point 30 min): 0.57%
- Cpd.2 quantification in hBALf, percentage of initial signal area ([2]; 1 μM, time point 60 min): 0.28%
- Cpd.2 quantification in hBALf, percentage of initial signal area ([2]; 1 μM, time point 120 min): 0.19%
- Cpd.2 quantification in hBALf, percentage of initial signal area ([2]; 10 μM, time point 0 min): 100%
- Cpd.2 quantification in hBALf, percentage of initial signal area ([2]; 10 μM, time point 5 min): 14.98%
- Cpd.2 quantification in hBALf, percentage of initial signal area ([2]; 10 μM, time point 15 min): 4.27%
- Cpd.2 quantification in hBALf, percentage of initial signal area ([2]; 10 μM, time point 30 min): 1.38%
- Cpd.2 quantification in hBALf, percentage of initial signal area ([2]; 10 μM, time point 60 min): 0.49%
- Cpd.2 quantification in hBALf, percentage of initial signal area ([2]; 10 μM, time point 120 min): 0.25%
- solubility at 24 h [3, 4]: 143000 µg/mL
- fold more soluble compared to unphosphated analogue [3]: at least 1500 fold
- Solubility ratio [3]: 1 588

Structure (SMILES): COc1cc(C)ccc1C(NC(=O)C1(c2ccc3[nH]cc(CCOP(=O)([O-])[O-])c3c2)CC1)c1ccccc1.[Na+].[Na+] (centres unmarked) [Cpd.4, disodium 2-[5-(1-{[(2-methoxy-4-methylphenyl)(phenyl)methyl]carbamoyl}cyclopropyl)-1H-indol-3-yl]ethyl phosphate]
- solubility at 24 h [3, 4]: 11200 µg/mL
- Solubility ratio [3]: 7 000

Structure (SMILES): Cc1ccc(C(NC(=O)C2(c3ccc4[nH]cc(CCOP(=O)(O)O)c4c3)CC2)c2cccc(C)n2)c(C)c1.[Na].[Na] (centres unmarked) [Cpd.6, disodium {2-[5-(1-{[(2,4-dimethyl phenyl)(6-methylpyridin-2-yl)methyl]carbamoyl}cyclopropyl)-1H-indol-3-yl]ethoxy} phosphonic acid]
- solubility at 24 h [3, 4]: > 62700 µg/mL
- Solubility ratio [3]: ≥12 000

Structure (SMILES): Cc1ccc(C(NC(=O)C2(c3ccc4[nH]cc(CCOP(=O)([O-])[O-])c4c3)CC2)c2cccc(Cl)c2)c(C)c1.[Na+].[Na+] (centres unmarked) [Cpd.8, disodium 2-[5-(1-{[(3-chlorophenyl)(2,4-dimethylphenyl)methyl]carbamoyl}cyclopropyl)-1H-indol-3-yl]ethyl phosphate]
- solubility at 24 h [3, 4]: > 10000 µg/mL
- fold more soluble compared to unphosphated analogue [3]: more than 100 000 fold
- Solubility ratio [3]: ≥100 000

Structure (SMILES): COc1ccc(C(NC(=O)C2(c3ccc4[nH]cc(CCOP(=O)([O-])[O-])c4c3)CC2)c2ccccc2)c(C)c1.[Na+].[Na+] (centres unmarked) [Cpd.10, disodium 2-[5-(1-{[(4-methoxy-2-methylphenyl)(phenyl)methyl]carbamoyl}cyclopropyl)-1H-indol-3-yl]ethyl phosphate]
- solubility at 24 h [3, 4]: > 50400 µg/mL
- Solubility ratio [3]: ≥13513

Structure (SMILES): Cc1ccc(C(NC(=O)C2(c3ccc4[nH]cc(CCOP(=O)([O-])[O-])c4c3)CC2)C2CC2)c(C)c1.[Na+].[Na+] (centres unmarked) [Cpd.14, disodium 2-[5-(1-{[cyclopropyl(2,4-dimethylphenyl)methyl]carbamoyl}cyclopropyl)-1H-indol-3-yl]ethyl phosphate]
- solubility at 24 h [3, 4]: > 70800 µg/mL
- Solubility ratio [3]: ≥5 949

Structure (SMILES): Cc1ccc(C(NC(=O)C2(c3ccc4[nH]cc(CCOP(=O)([O-])[O-])c4c3)CC2)c2ccccc2)c(N2CCOCC2)c1.[Na+].[Na+] (centres unmarked) [Cpd.16, disodium 2-{5-[1-({[4-methyl-2-(morpholin-4-yl)phenyl](phenyl)methyl}carbamoyl)cyclopropyl]-1H-indol-3-yl}ethyl phosphate]
- solubility at 24 h [3, 4]: 3640 µg/mL
- Solubility ratio [3]: 52 057

Structure (SMILES): Cc1noc(C)c1C(NC(=O)C1(c2ccc3[nH]cc(CCOP(=O)([O-])[O-])c3c2)CC1)c1ccccc1.[Na+].[Na+] (centres unmarked) [Cpd.18, disodium 2-[5-(1-{[(dimethyl-1,2-oxazol-4-yl) (phenyl)methyl]carbamoyl}cyclopropyl)-1H-indol-3-yl] ethyl phosphate]
- Solubility [3, 4]: >71350 µg/mL
- Solubility ratio [3]: ≥911

Structure (SMILES): Cc1ccc(C(NC(=O)C2(c3ccc4[nH]cc(CCO)c4c3)CC2)c2ccc(C)o2)c(C)c1 (centres unmarked) [Cpd.A, N-[(2,4-dimethylphenyl)(5-methylfuran-2-yl)methyl]-1-[3-(2-hydroxyethyl)-1H-indol-5-yl]cyclopropane-1-carboxamide, reference compound]
- solubility at 24 h [3, 4]: 90 µg/mL (≈ 203 µM)

Structure (SMILES): COc1cc(C)ccc1C(NC(=O)C1(c2ccc3[nH]cc(CCO)c3c2)CC1)c1ccccc1 (centres unmarked) [Ex.2a, 1-[3-(2-hydroxyethyl)-1H-indol-5-yl]-N-[(2-methoxy-4-methylphenyl)(phenyl)methyl]cyclopropane-1-carboxamide]
- solubility at 24 h [3, 4]: 1.6 µg/mL (≈ 3.52 µM)

Structure (SMILES): Cc1ccc(C(NC(=O)C2(c3ccc4[nH]cc(CCO)c4c3)CC2)c2cccc(C)n2)c(C)c1 (centres unmarked) [Ex.3a, N-[(2,4-dimethylphenyl)(6-methylpyridin-2-yl)methyl]-1-[3-(2-hydroxyethyl)-1H-indol-5-yl]cyclo-propane-1-carboxamide]
- solubility at 24 h [3, 4]: 5.2 µg/mL (≈ 11.5 µM)

Structure (SMILES): Cc1ccc(C(NC(=O)C2(c3ccc4[nH]cc(CCO)c4c3)CC2)c2cccc(Cl)c2)c(C)c1 (centres unmarked) [Ex.4a, N-[(3-chlorophenyl)(2,4-dimethylphenyl)methyl]-1-[3-(2-hydroxyethyl)-1H-indol-5-yl]cyclopropane-1-carboxamide]
- solubility at 24 h [3, 4]: 0.1 µg/mL (≈ 0.211 µM)

Structure (SMILES): COc1ccc(C(NC(=O)C2(c3ccc4[nH]cc(CCO)c4c3)CC2)c2ccccc2)c(C)c1 (centres unmarked) [Ex.5a, 1-[3-(2-hydroxyethyl)-1H-indol-5-yl]-N-[(4-methoxy-2-methylphenyl)(phenyl)methyl]cyclopropane-1-carboxamide]
- solubility at 24 h [3, 4]: 3.7 µg/mL (≈ 8.14 µM)

Structure (SMILES): Cc1ccc(C(NC(=O)C2(c3ccc4[nH]cc(CCO)c4c3)CC2)C2CC2)c(C)c1 (centres unmarked) [Ex.7a, N-[cyclopropyl(2,4-dimethylphenyl)methyl]-1-[3-(2-hydroxyethyl)-1H-indol-5-yl]cyclopropane-1-carboxamide]
- solubility at 24 h [3, 4]: 11.9 µg/mL (≈ 29.6 µM)

Structure (SMILES): Cc1ccc(C(NC(=O)C2(c3ccc4[nH]cc(CCO)c4c3)CC2)c2ccccc2)c(N2CCOCC2)c1 (centres unmarked) [Ex.8a, 1-[3-(2-hydroxyethyl)-1H-indol-5-yl]-N-{[4-methyl-2-(morpholin-4-yl)phenyl](phenyl)methyl}cyclopropane-1-carboxamide]
- solubility at 24 h [3, 4]: 0.07 µg/mL (≈ 0.137 µM)

Structure (SMILES): Cc1noc(C)c1C(NC(=O)C1(c2ccc3[nH]cc(CCO)c3c2)CC1)c1ccccc1 (centres unmarked) [Ex.9d, N-[(dimethyl-1,2-oxazol-4-yl)(phenyl)methyl]-1-[3-(2-hydroxyethyl)-1H-indol-5-yl]cyclopropane-1-carboxamide]
- solubility at 24 h [3, 4]: 78.3 µg/mL (≈ 182 µM)
